“And” between values parts separate entries of the source, which are not always exact repeats. Identical values can stand only once. Like-named read-outs stand apart in the source and are kept apart here.
Assays:
[1] = Plasma concentrations by HPLC with fluorescence detection; assay type: in vivo, human; settings: for concentration at 28 day: human, plasma, oral, 75 mg tid, 12 subjects, about 1 month of 75 mg tid; for Plasma concentrations: individual subjects, sampling day 27-30, midostaurin 75 mg tid
Description: (§1) Therefore, the tumour tissue was frozen and cut into as small as possible pieces with a scalpel. The pieces were weighed, added to 1 ml of water, vortexed and thereafter treated like plasma. The assay for plasma samples was validated with acceptable calibration curves, within-study variability and total recovery. […] Due to limited availability of tumour tissue, the within-study validation for tumour assay was not performed.

[2] = Tumour tissue concentrations by HPLC with fluorescence detection; assay type: in vivo, human; settings: for Kp at 28 day / concentration at 28 day: human, oral, 10 subjects; for Kp at 28 day: tumour tissue / plasma, 75 mg three times a day; for Kp at 28 day / Tissue/plasma ratios: tumour tissue to plasma; for concentration at 28 day / Tissue concentrations: tumour tissue, about 1 month of 75 mg tid; for concentration at 28 day: 75 mg tid; for Tissue/plasma ratios / Tissue concentrations: individual subjects
Description: as §1

PKC isotypes = settings: metabolites, compared with parent drug; no reference given; read-out: IC50 against PKC isotypes; cited from earlier work
[3] = parameters: method as in Propper et al, 2001; settings: Phase I trial, oral; ref Propper et al, 2001; cited from earlier work
[4] = read-out: Plasma concentrations, median
[5] = read-out: Tissue/plasma ratios, median
[6] = read-out: Tissue concentrations, median
[7] = read-out: Plasma concentrations, maximum
[8] = read-out: Plasma concentrations, mean
[9] = read-out: Plasma concentrations, minimum
[10] = read-out: Tissue/plasma ratios, maximum
[11] = read-out: Tissue/plasma ratios, mean
[12] = read-out: Tissue/plasma ratios, minimum
[13] = read-out: Tissue concentrations, maximum
[14] = read-out: Tissue concentrations, mean
[15] = read-out: Tissue concentrations, minimum

concentration at 28 day [1, 4] [µM]	Kp at 28 day [2, 5]	concentration at 28 day [2, 6] [nM]	concentration at 28 day [1, 7] [µM]	concentration at 28 day [1, 8] [µM]	concentration at 28 day [1, 9] [µM]	Kp at 28 day [2, 10]	Kp at 28 day [2, 11]	Kp at 28 day [2, 12]	concentration at 28 day [2, 13] [nM]	concentration at 28 day [2, 14] [nM]	concentration at 28 day [2, 15] [nM]	SMILES	IC50 (PKC isotypes) [nM]	Plasma concentrations [1]	Tissue/plasma ratios [2]	Tissue concentrations [2]	Estimated median elimination t1/2 [3] [days]
18.4	0.083	1520										CO[C@@H]1[C@H](N(C)C(=O)c2ccccc2)C[C@H]2O[C@]1(C)n1c3ccccc3c3c4c(c5c6ccccc6n2c5c31)C(=O)N[C@H]4O [CGP52421]	50				
5.43	0.2	710	10.1	5.36	2.47	0.42	0.21	0.04	2350	990	175	CN(C(=O)c1ccccc1)[C@@H]1C[C@H]2O[C@@](C)([C@@H]1O)n1c3ccccc3c3c4c(c5c6ccccc6n2c5c31)C(=O)NC4 [CGP 62221]	120	4.66 µM and 3.227 µM and 2.474 µM and 7.205 µM and 5.723 µM and 6.061 µM and 10.132 µM and 2.995 µM and 5.761 µM and 5.28 µM and 5.265 µM and 5.586 µM	0.04 and 0.19 and 0.21 and 0.11 and 0.35 and 0.34 and 0.12 and 0.22 and 0.42	175 nM and 609 nM and 523 nM and 759 nM and 2006 nM and 661 nM and 1022 nM and 651 nM and 1143 nM and 2353 nM	
18.4	0.083	1520	22.4	17.3	10.8	0.153	0.085	0.033	3210	1500	635	CO[C@@H]1[C@H](N(C)C(=O)c2ccccc2)C[C@H]2O[C@]1(C)n1c3ccccc3c3c4c(c5c6ccccc6n2c5c31)C(=O)NC4O (single isomer, unassigned) [CGP52421 (e2)]		19.151 µM and 16.633 µM and 11.311 µM and 18.383 µM and 19.519 µM and 18.475 µM and 22.448 µM and 13.352 µM and 10.767 µM and 15.869 µM and 20.34 µM and 20.944 µM	0.03 and 0.09 and 0.07 and 0.06 and 0.12 and 0.08 and 0.11 and 0.05 and 0.15	635 nM and 1528 nM and 789 nM and 1031 nM and 2367 nM and 1569 nM and 1503 nM and 776 nM and 1644 nM and 3212 nM	36
